The values that follow come from patent publication US12709738B2, “Compositions and methods for increasing the culture density of a cellular biomass within a cultivation infrastructure” (The Upside Group Inc., priority 2017, dated 2026).

Type in all cases: cell-based
For assay [1], the system named is Bovine myoblasts. Put plainly: Proliferation rate by EdU incorporation (FACS) after LPA. The note with it: 10 μM LPA, 24 hours; compared to vehicle-treated cells; FIG. 5. On the procedure: In another experiment, bovine myoblasts were plated at a culture density of 10,000 cells per well in a 96 well plate in triplicate wells. The cells were allowed to adhere for 24 hours, when 10 μM LPA was added in the medium. Cells were subsequently harvested. After 24 hours, the proliferation rate was measured by EdU incorporation using a commercially available nucleoside pulse labeling kit such as the Click-iT-EdU kit (ThermoFisher). Briefly, cells were treated with 3 μM EdU, incubated at room temperature for 6 hours and detected according to the manufacturer's instructions, Cells were labeled with Alexa Fluor® 647 azide and analyzed using Fluorescence-Activated Cell Sorting (FACS) using 633 nm excitation and a 660/20 nm emission filter.

Assay [2] relates to Bovine myoblasts. Put plainly: Cell count by bright field cell imaging after LPA, subconfluent and confluent cultures. Conditions: 96 well plate, LPA 0, 10 or 25 μM. On the procedure:
Bovine myoblasts were isolated from a bovine skeletal muscle tissue using the protocol described above. Isolated myoblasts were plated at a culture density of 2000 (subconfluent) or 10,000 (confluent) cells per well in a 96 well plate in triplicate wells. The cells were allowed to adhere for 24 hours, at which time LPA was added at a concentration of 0, 10 or 25 μM in the medium. Cells were subsequently harvested and counted by bright field cell imaging (Cytation 5 live cell imaging, analyzed with Lionheart software). […] Data shown are mean+/−SD. Significance was determined by the Student's T test.

The subject of assay [3] is Bovine myoblasts. Briefly: Differentiation to mature muscle cells by myogenin immunostaining. The note with it: LPA 10 or 25 μM added daily in serum-free medium. The procedure: Isolated bovine myoblasts were plated in a culture medium without adding serum at a culture density of 10,000 cells per well in a 96 well plate in triplicate wells. The cells were allowed to adhere for 24 hours, when LPA was added at a concentration of 0, 10 or 25 μM in serum-free medium. LPA was added daily until harvesting. Myogenin was used as a marker of differentiation to mature muscle cells. To determine the degree of differentiation to mature muscle cells, cultures were fixed in 4% paraformaldehyde for 10 min and then washed with PBS. Cells were incubated with PBS/0.2% BSA/0.1% Triton-X100 for 20 min followed by incubation with an anti-myogenin antibody (Abcam, mouse, 1/150) for 1 h at room temperature. After 3 washes with PBS/0.2% BSA, cells were incubated with secondary antibodies (goat anti-rabbit Alexa488, 1/800; goat anti-mouse Alexa555, 1/800, Invitrogen) for 30 min at room temperature. Nucleus was stained with DAPI.

Consider lysophosphatidic acid [LPA], for which the “increase in percentage of cells in the S-phase” value in assay [1] came out at 216%. The “increase of cells in the subconfluent culture” value in assay [2] (2000 cells per well, FIG. 4A) amounted to 309%. In addition, the “increase of cells in the confluent culture” value in assay [2] (10,000 cells per well, FIG. 4B) is 130%. In addition, the “expression of myogenin (marker of differentiation)” value in assay [3] was “reduced expression of myogenin”.
